The source of these data is patent US20240239775A1, “FXR REGULATOR, PREPARATION METHOD THEREFOR, PHARMACEUTICAL COMPOSITION THEREOF AND USE THEREOF” (QINGDAO RUIJI MEDICAL TECHNOLOGY CO., LTD., priority 2021, published 2024).

As a reminder, the IC50 is the concentration at which inhibition is half-maximal. Lower therefore signals greater potency.

This test addresses T1, FXR (Homo sapiens, UniProt Q96RI1).
T1 construct: 5 μL of 20 nM FXR-LBD Complete Coregulator buffer G; purchased ThermoFisher PV4833
T1 sequence (Q96RI1 262-486 limits assumed): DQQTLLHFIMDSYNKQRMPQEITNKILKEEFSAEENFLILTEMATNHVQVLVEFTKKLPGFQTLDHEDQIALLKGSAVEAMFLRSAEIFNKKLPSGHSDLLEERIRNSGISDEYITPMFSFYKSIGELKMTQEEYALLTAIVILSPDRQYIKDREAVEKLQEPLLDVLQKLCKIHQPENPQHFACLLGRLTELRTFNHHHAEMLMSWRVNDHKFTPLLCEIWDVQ
The experiment in a line: FXR antagonist screening by TR-FRET (LanthaScreen TR-FRET FXR co-activation assay kit). The test is classed as biochemical. To be noted: Table 1.2, FXR antagonistic activity; TR-FRET with CDCA; geometric means of at least two independent runs. Put shortly: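 FXR-LBD (20 nM working solution) mixed with compound, CDCA (200 μM working solution) as agonist, Fluorescein-SRC2-2 and Tb-anti-GST antibody in Coregulator buffer G; 10 h at room temperature. Coactivator recruitment read by TR-FRET, triplicate wells.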
(In general: In TR-FRET formats the signal depends on donor and acceptor labels being close together.)
In the case of `CCOC(=O)c1oc2ccc(S(=O)(=O)N(CCc3ccccc3)c3ccccc3N3CCN(C(=O)c4ccc(C(C)=O)cc4)CC3)cc2c1C` [Example M10-115, Ethyl 5-(N-(2-(4-(4-acetylbenzoyl)piperazin-1-yl)phenyl)-N-phenethylsulfamoyl)-3-methylbenzofuran-2-carboxylate], the IC50 was 50 to 100 µM.

For the compound `CCOC(=O)c1oc2ccc(S(=O)(=O)N(CCc3ccccc3)c3ccccc3N3CCN(C(=O)c4cccnc4)CC3)cc2c1C` [Example M10-116, Ethyl 3-methyl-5-(N-(2-(4-nicotinoylpiperazin-1-yl)phenyl)-N-phenethylsulfamoyl)benzofuran-2-carboxylate], the IC50 lay in the range of 50 to 100 µM. In the case of `CCOC(=O)c1oc2ccc(S(=O)(=O)N(CCc3ccccc3)c3ccccc3N3CCN(C(=O)c4ccccn4)CC3)cc2c1C` [Example M10-117, ethyl 3-methyl-5-(N-phenethyl-N-(2-(4-pyridineformylpiperazin-1-yl)phenyl)sulfamoyl)benzofuran-2-carboxylate], the IC50 was in the range of 50 to 100 µM. Under `CCOC(=O)c1oc2ccc(S(=O)(=O)N(CCc3ccccc3)c3ccccc3N3CCN(C(=O)c4cccs4)CC3)cc2c1C` [Example M10-118, Ethyl 3-methyl-5-(N-phenethyl-N-(2-(4-(thiophene-2-carbonyl)piperazin-1-yl)phenyl)sulfamoyl)benzofuran-2-carboxylate] stands 50 to 100 µM; under `CCOC(=O)c1oc2ccc(S(=O)(=O)N(CCc3ccccc3)c3ccccc3N3CCN(C(=O)c4ccsc4)CC3)cc2c1C` [Example M10-119, Ethyl 3-methyl-5-(N-phenethyl-N-(2-(4-(thiophene-3-carbonyl)piperazin-1-yl)phenyl)sulfamoyl)benzofuran-2-carboxylate], 50 to 100 µM. Under `C/C=C/C(=O)N1CCN(c2ccccc2N(CCc2ccccc2)S(=O)(=O)c2ccc3oc(C(=O)OCC)c(C)c3c2)CC1` [Example M10-120, (E)ethyl-5-(N-(2-(4-(but-2-enoyl)piperazin-1-yl)phenyl)-N-phenethylsulfamoyl)-3-methylbenzofuran-2-carboxylate] stands 50 to 100 µM; under `CCOC(=O)c1oc2ccc(S(=O)(=O)N(CCc3ccccc3)c3ccccc3N3CCN(C(=O)c4ccco4)CC3)cc2c1C` [Example M10-121, Ethyl 5-(N-(2-(4-(furan-2-carbonyl)piperazin-1-yl)phenyl)-N-phenethylsulfamoyl)-3-methylbenzofuran-2-carboxylate], 50 to 100 µM; under `CCOC(=O)c1oc2ccc(S(=O)(=O)N(CCc3ccccc3)c3ccccc3N3CCN(C(=O)C4CCCC4)CC3)cc2c1C` [Example M10-122, Ethyl 5-(N-(2-(4-(cyclopentanecarbonyl)piperazin-1-yl)phenyl)-N-phenethylsulfamoyl)-3-methylbenzofuran-2-carboxylate], 50 to 100 µM. As for `CCOC(=O)c1oc2ccc(S(=O)(=O)N(CCc3ccccc3)c3ccccc3N3CCN(C(=O)c4ccc(Br)s4)CC3)cc2c1C` [Example M10-123, Ethyl 5-(N-(2-(4-(5-bromothiophene-2-carbonyl)piperazin-1-yl)phenyl)-N-phenethylsulfamoyl)-3-methylbenzofuran-2-carboxylate], the IC50 was in the range of 50 to 100 µM. Under `CCOC(=O)c1oc2ccc(S(=O)(=O)N(CCc3ccccc3)c3ccccc3N3CCN(C(=O)c4ccc[nH]4)CC3)cc2c1C` [Example M10-124, Ethyl 5-(N-(2-(4-(1H-pyrrole-2-carbonyl)piperazin-1-yl)phenyl)-N-phenethylsulfamoyl)-3-methylbenzofuran-2-carboxylate] stands 50 to 100 µM. In the case of `CCOC(=O)c1oc2ccc(S(=O)(=O)N(CCc3ccccc3)c3ccccc3N3CCN(C(=O)c4sccc4Br)CC3)cc2c1C` [Example M10-125, ethyl 5-(N-(2-(4-(3-bromothiophene-2-carbonyl)piperazin-1-yl)phenyl)-N-phenethylsulfamoyl)-3-methylbenzofuran-2-carboxylate], the IC50 lay within 50 to 100 µM.

For the compound `CCOC(=O)c1oc2ccc(S(=O)(=O)N(CCc3ccccc3)c3ccccc3N3CCN(C(=O)c4sccc4Cl)CC3)cc2c1C` [Example M10-126, Ethyl 5-(N-(2-(4-(3-chlorothiophene-2-carbonyl)piperazin-1-yl)phenyl)-N-phenethylsulfamoyl)-3-methylbenzofuran-2-carboxylate], the IC50 lay in the range of 50 to 100 µM.

With `CCOC(=O)c1oc2ccc(S(=O)(=O)N(CCc3ccccc3)c3ccccc3N3CCN(C(=O)c4cc(Br)cs4)CC3)cc2c1C` [Example M10-127, Ethyl 5-(N-(2-(4-(4-bromothiophene-2-carbonyl)piperazin-1-yl)phenyl)-N-phenethylsulfamoyl)-3-methylbenzofuran-2-carboxylate], the IC50 fell in the range of 50 to 100 µM. As to `CCOC(=O)c1oc2ccc(S(=O)(=O)N(CCc3ccccc3)c3ccccc3N3CCN(C(=O)c4ccc(Cl)s4)CC3)cc2c1C` [Example M10-128, Ethyl 5-(N-(2-(4-(5-chlorothiophene-2-carbonyl)piperazin-1-yl)phenyl)-N-phenethylsulfamoyl)-3-methylbenzofuran-2-carboxylate], the IC50 was in the range of 50 to 100 µM.

For the compound `CCOC(=O)c1oc2ccc(S(=O)(=O)N(CCc3ccccc3)c3ccccc3N3CCN(C(=O)c4cncs4)CC3)cc2c1C` [Example M10-129, Ethyl 3-methyl-5-(N-phenethyl-N-(2-(4-(thiazole-5-carbonyl)piperazin-1-yl)phenyl)sulfamoyl)benzofuran-2-carboxylate], the IC50 was in the range of 50 to 100 µM. Under `CCOC(=O)c1oc2ccc(S(=O)(=O)N(CCc3ccccc3)c3ccccc3N3CCN(C(=O)c4cc[nH]n4)CC3)cc2c1C` [Example M10-130, Ethyl 5-(N-(2-(4-(1H-pyrazole-3-carbonyl)piperazin-1-yl)phenyl)-N-phenethylsulfamoyl)-3-methylbenzofuran-2-carboxylate] stands 50 to 100 µM. Take `CCOC(=O)c1oc2ccc(S(=O)(=O)N(CCc3ccccc3)c3ccccc3N3CCN(C(=O)c4cnco4)CC3)cc2c1C` [Example M10-131, Ethyl 3-methyl-5-(N-(2-(4-(oxazole-5-carbonyl)piperazin-1-yl)phenyl)-N-phenethylsulfamoyl)benzofuran-2-carboxylate]: the IC50 was 50 to 100 µM. `CCOC(=O)c1oc2ccc(S(=O)(=O)N(CCc3ccccc3)c3ccccc3N3CCN(C(=O)c4ccc(C)c(C)c4)CC3)cc2c1C` [Example M10-132, Ethyl 5-(N-(2-(4-(3,4-Dimethylbenzoyl)piperazin-1-yl)phenyl)-N-phenethylsulfamoyl) 3-methylbenzofuran-2-carboxylate] showed an IC50 of 50 to 100 µM.

The compound `CCOC(=O)c1oc2ccc(S(=O)(=O)N(CCc3ccccc3)c3ccccc3N3CCN(C(=O)c4c(OC)cccc4OC)CC3)cc2c1C` [Example M10-133, Ethyl 5-(N-(2-(4-(2,6-Dimethoxybenzoyl)piperazin-1-yl)phenyl)-N-phenethylsulfamoyl)3-methylbenzofuran-2-carboxylate] showed an IC50 of 50 to 100 µM.

For the compound `CCOC(=O)c1oc2ccc(S(=O)(=O)N(CCc3ccccc3)c3ccccc3N3CCN(C(=O)c4ccccc4Cc4ccccc4)CC3)cc2c1C` [Example M10-134, Ethyl 5-(N-(2-(4-(2-benzylbenzoyl)piperazin-1-yl)phenyl)-N-phenethylsulfamoyl)3-methylbenzofuran-2-carboxylate], the IC50 fell in the range of 50 to 100 µM. For `CCOC(=O)c1oc2ccc(S(=O)(=O)N(CCc3ccccc3)c3ccccc3N3CCN(C(=O)c4c(C)cc(C)cc4C)CC3)cc2c1C` [Example M10-135, Ethyl 5-(N-(2-(4-(2,4,6-trimethylbenzoyl)piperazin-1-yl)phenyl)-N-phenethylsulfamoyl)3-methylbenzofuran-2-carboxylate], the IC50 lay within 50 to 100 µM. Consider `CCOC(=O)c1oc2ccc(S(=O)(=O)N(CCc3ccccc3)c3ccccc3N3CCN(C(=O)c4ccccc4OC)CC3)cc2c1C` [Example M10-136, Ethyl 5-(N-(2-(4-(2-methoxybenzoyl)piperazin-1-yl)phenyl)-N-phenethylsulfamoyl)3-methylbenzo furan-2-carboxylate], for which the IC50 is 50 to 100 µM. The compound `CCOC(=O)c1oc2ccc(S(=O)(=O)N(CCc3ccccc3)c3ccccc3N3CCN(C(=O)c4cc(C)ccc4C)CC3)cc2c1C` [Example M10-137, Ethyl 5-(N-(2-(4-(2,5-Dimethylbenzoyl)piperazin-1-yl)phenyl)-N-phenethylsulfamoyl)3-methylbenzofuran-2-carboxylate] displayed an IC50 of 50 to 100 µM. `CCOC(=O)c1oc2ccc(S(=O)(=O)N(CCc3ccccc3)c3ccccc3N3CCN(C(=O)c4ccc(C#Cc5ccccc5)cc4)CC3)cc2c1C` [Example M10-138, Ethyl 5-(N-(2-(4-(4-(phenylethynyl)benzoyl)piperazin-1-yl)phenyl)-N-phenethylsulfamoyl)3-methylbenzofuran-2-carboxylate]: the IC50 lay within 50 to 100 µM. `CCOC(=O)c1oc2ccc(S(=O)(=O)N(CCc3ccccc3)c3ccccc3N3CCN(C(=O)c4ccc(C)s4)CC3)cc2c1C` [Example M10-139, Ethyl 5-(N-(2-(4-(5-methylthiophene-2-formyl)piperazin-1-yl)phenyl)-N-phenethylsulfamoyl)3-methylbenzofuran-2-carboxylate] registered an IC50 of 50 to 100 µM. Under `CCOC(=O)c1oc2ccc(S(=O)(=O)N(CCc3ccccc3)c3ccccc3N3CCN(C(=O)c4cc(C)cs4)CC3)cc2c1C` [Example M10-140, Ethyl 5-(N-(2-(4-(4-methylthiophene-2-formyl)piperazin-1-yl)phenyl)-N-phenethylsulfamoyl)3-methylbenzofuran-2-carboxylate] stands 50 to 100 µM.
